In brackets after ≈: the same amount, converted by molar mass.
What was measured:
[1] = test system: HCT116, MDA-MB-231 and PC-3; assay: Antiproliferative assay, whole panel of cancer cell lines; assay type: cell-based, human
Procedure: (§1) Compounds tested in the antiproliferative assays were tested in 11 dilution points (0.02 µM–40 µM or 0.04 µM–80 µM). […] HCT116 cells were maintained in McCoy’s 5A media (Life Technologies, CA, USA), MDA-MB-231 cells were cultured in DMEM media (Life Technologies) with 10 mM HEPES (Life Technologies), whilst PC-3 cells were maintained in RPMI media (Life Technologies). All media were supplemented with 10% heat-inactivated fetal bovine serum (Australian source; Corning, CA, USA) and all cells were incubated at 37 °C in a humidified incubator with 5% CO2. Cells were seeded in 384-well plates (Greiner Bio-One, NC, USA) using the respective complete media. After 24 h cell seeding, compounds were added and antiproliferative activity was determined using the resazurin assay after 72 h compound incubation. Briefly, cells were incubated with 60 µM resazurin (Cayman, MI, USA) for 6 h at 37 °C and fluorescence signals were measured using a microplate reader (EnSight, PerkinElmer, Waltham, MA, USA).

[2] = test system: Plasmodium falciparum 3D7 strain; assay: Antiplasmodial imaging assay; assay type: cell-based; conditions: P. falciparum 3D7, 72 h, mean ± standard deviation, two separate experiments; for IC50: Plasmodium falciparum
Procedure: (§2) Compounds tested in the antiproliferative assays were tested in 11 dilution points (0.02 µM–40 µM or 0.04 µM–80 µM).
(§3) Antiplasmodial activity was determined as previously described by Duffy and Avery. […] After incubation, plates were stained with 4’,6-diamidino-2-phenylindole (DAPI) in a permeabilization buffer for 5 h at rt in the dark. Plates were imaged on the Opera confocal microplate image reader (PerkinElmer).

[3] = test system: S. epidermis (ATCC 35984); assay: Biofilm formation inhibition assay; assay type: cell-based, Staphylococcus epidermidis; conditions: inhibition of biofilm formation
Procedure: (§4) The prepared samples were tested for in vitro antimicrobial activity against E. faecalis, E. coli, P. aeruginosa, S. aureus, Streptococcus agalactiae and S. epidermis using gentamycin as a reference compound.
For testing the inhibition of biofilm formation, the biofilm-producing Staphylococcus epidermidis (ATCC 35984) was grown in Tryptic Soy Broth (TSB, 105459, Merck, Kenilworth, NJ, USA) overnight at 37 °C. The overnight culture was diluted in fresh medium with 1% glucose (D9434, Sigma) before being transferred to a 96-well microtiter plate; 50 µL/well were incubated overnight with 50 µL of the test compound dissolved in 2% (v/v) DMSO aq. added in duplicates. The bacterial culture was removed from the plate and the plate was washed with tap water. The biofilm was fixed at 65 °C for 1 h before 70 µL 0.1% crystal violet (115940, Millipore, Burlington, MA, USA) was added to the wells for 10 min of incubation and 70 µL of 70% ethanol was then added to each well and the plate incubated on a shaker for 5–10 min. Biofilm formation inhibition was assessed by the presence of violet color and measured at […] absorbance using a 1420 Multilabel Counter VICTOR3TM; 50 µL of a non-biofilm forming Staphylococcus haemolyticus (clinical isolate 8-7A, University Hospital of North Norway Tromsø, Norway) mixed in 50 µL autoclaved Milli-Q water was used as a control; 50 µL S. epidermidis mixed in 50 µL autoclaved Milli-Q water was used as the control for biofilm formation; and 50 µL TSB with 50 µL autoclaved Milli-Q water was used as a medium blank control.

E. coli (ATCC 259233) = assay: Bacterial growth inhibition assay; assay type: cell-based, Escherichia coli; conditions: Escherichia coli, ATCC259233
Procedure: as §4
To determine and quantify antimicrobial activity, a bacteria growth inhibition assay in liquid media was executed. Compounds 2–3, 4, 8–10, 13–14, 16, 18, and 20 were tested against Staphylococcus aureus (ATCC 25923), Escherichia coli (ATCC 259233), Enterococcus faecialis (ATCC 29122), Pseudomonas aeruginosa (ATCC 27853) and Streptococcus agalactiae (ATCC 12386); all strains from LGC Standards (Teddington, UK). S. aureus, E. coli, and P. aeruginosa were grown in Muller Hinton broth (275730, Becton, Franklin Lakes, NJ, USA). E. faecalis and S. agalactiae were cultured in brain hearth infusion broth (53286, Sigma, St Louise, MO, USA). Fresh bacterial colonies were transferred in the respective medium and incubated at 37 °C overnight. The bacterial cultures were diluted to a culture density representing the log phase and µL/well were pipetted into a 96-well microtiter plate (734–2097, NunclonTM, Thermo Scientific, Waltham, MA, USA). The final cell density was 1500–15.000 colony forming units/well. The compound was diluted in 2% (v/v) DMSO in ddH2O, providing a final assay concentration of 50% of the prepared sample, since 50 µL of sample in DMSO/water were added to 50 µL bacterial culture. After adding the samples to the plates, they were incubated overnight at 37 °C and the growth was determined by measuring the optical density at λ = 600 nm (OD600) with a 1420 Multilabel Counter VICTOR3TM (Perkin Elmer, Waltham, MA, USA). A water sample was used as a reference control, growth medium without bacteria was used as a negative control and dilution series of gentamycin (A2712, Merck, Darmstadt, DE) from 32 to 0.01 µg/mL was used as positive control and visually inspected for bacterial growth. The positive control was used as a system suitability test and the results of the antimicrobial assay were only considered valid when positive control was passed. […]

[4] = test system: Streptococcus agalactiae (ATCC 12386); assay: Bacterial growth inhibition assay; assay type: cell-based; conditions: ATCC12386
Procedure: as §4
(§5) To determine and quantify antimicrobial activity, a bacteria growth inhibition assay in liquid media was executed. Compounds 2–3, 4, 8–10, 13–14, 16, 18, and 20 were tested against Staphylococcus aureus (ATCC 25923), Escherichia coli (ATCC 259233), Enterococcus faecialis (ATCC 29122), Pseudomonas aeruginosa (ATCC 27853) and Streptococcus agalactiae (ATCC 12386); all strains from LGC Standards (Teddington, UK). S. aureus, E. coli, and P. aeruginosa were grown in Muller Hinton broth (275730, Becton, Franklin Lakes, NJ, USA). E. faecalis and S. agalactiae were cultured in brain hearth infusion broth (53286, Sigma, St Louise, MO, USA). Fresh bacterial colonies were transferred in the respective medium and incubated at 37 °C overnight. The bacterial cultures were diluted to a culture density representing the log phase and µL/well were pipetted into a 96-well microtiter plate (734–2097, NunclonTM, Thermo Scientific, Waltham, MA, USA). The final cell density was 1500–15.000 colony forming units/well. The compound was diluted in 2% (v/v) DMSO in ddH2O, providing a final assay concentration of 50% of the prepared sample, since 50 µL of sample in DMSO/water were added to 50 µL bacterial culture. After adding the samples to the plates, they were incubated overnight at 37 °C and the growth was determined by measuring the optical density at λ = 600 nm (OD600) with a 1420 Multilabel Counter VICTOR3TM (Perkin Elmer, Waltham, MA, USA). A water sample was used as a reference control, growth medium without bacteria was used as a negative control and dilution series of gentamycin (A2712, Merck, Darmstadt, DE) from 32 to 0.01 µg/mL was used as positive control and visually inspected for bacterial growth. The positive control was used as a system suitability test and the results of the antimicrobial assay were only considered valid when positive control was passed. The final concentration of DMSO in the assays was ≤2% (v/v) and was known to have no effect in the tested bacteria. The data was processed using GraphPad Prism 8.

E. faecalis (ATCC 29122) = assay: Bacterial growth inhibition assay; assay type: cell-based, Enterococcus faecialis; conditions: Enterococcus faecalis, ATCC29122
Procedure: as §4, §5

[5] = test system: MDA-MB-231 (human breast adenocarcinoma); assay: Antiproliferative assay (resazurin); assay type: cell-based; conditions: for IC50: Homo sapiens, MDA-MB-231, 72 h compound incubation, mean ± sem, two separate experiments
Procedure: as §1

[6] = test system: HCT116 (human colon cancer); assay: Antiproliferative assay (resazurin); assay type: cell-based; conditions: Homo sapiens, HCT-116; 72 h compound incubation; mean ± sem, two separate experiments
Procedure: as §1

[7] = test system: PC-3 (human prostate cancer); assay: Antiproliferative assay (resazurin); assay type: cell-based; conditions: for IC50: Homo sapiens, 72 h compound incubation, mean ± sem, two separate experiments
Procedure: as §1

S. aureus (ATCC 25923) = assay: Bacterial growth inhibition assay; assay type: cell-based, Staphylococcus aureus; conditions: Staphylococcus aureus, ATCC25923
Procedure: as §4, §5

[8] = Antiplasmodial imaging assay; assay type: cell-based, Plasmodium falciparum; conditions: human (HEK293) and Plasmodium falciparum (3D7), HEK293 cells versus Plasmodium falciparum 3D7 culture; HEK293 vs 3D7; read-out: SI (selectivity index = cytotoxicity in HEK293/activity in 3D7)
Procedure: as §2, §3

[9] = Cytotoxicity assay (resazurin-based viability); assay type: cell-based; conditions: human, HEK293 cells, mean ± standard deviation, two separate experiments
Procedure: Fluorescence was measured using an EnSight plate reader (PerkinElmer, Waltham, MA, USA).

MIC (E. coli (ATCC 259233)) [µM] | MIC [4] [µM] | IC50 [5] [nM] | IC50 [6] [nM] | IC50 [7] [nM] | MIC (S. aureus (ATCC 25923)) [µM] | IC50 [2] [nM] | Structure (SMILES) | activity against the panel of cancer cell lines [1] | MBIC [3] [µM] | selectivity ratio at 72 h [8] | IC50 at 72 h [9] [nM] | further results
 |  |  |  |  |  |  | c1ccc2nc3[nH]c4ccccc4c3cc2c1 [Compound 13, 6H-Indolo[2,3-b]quinoline] | inactive |  |  |  | 3D7 IC50 [2]: no antiplasmodial inhibition
100 (≈ 23.2 µg/mL) | 100 (≈ 23.2 µg/mL) | 695 ± 130 | 667 ± 45 | 1821 ± 7 | 100 (≈ 23.2 µg/mL) | 1210 ± 84 | Cn1cc2c3ccccc3nc-2c2ccccc21 [Isocryptolepine (3a), isocryptolepine] |  | 100 | 1.7 | 2070 ± 70 | MIC (E. faecalis (ATCC 29122)): 100 µM (≈ 23.2 µg/mL)
 |  |  |  |  |  | 380 ± 0.5 | C[n+]1cccc2c3[nH]c4ccccc4c3ccc21 [Compound 21, 4-Methyl-11H-pyrido[3,2-a]carbazolium Iodide] | no activity |  |  |  | 
50 (≈ 12.4 µg/mL) | 75 (≈ 18.6 µg/mL) | 1000 ± 297 | 166 ± 16 | 24 ± 3 | 75 (≈ 18.6 µg/mL) | 866 ± 2 | COc1cnc2cccc3c2c1Nc1ccccc1-3 [Compound 4b, 6-methoxy-7H-pyrido[4,3,2-gh]phenanthridine] |  |  | 4.2 | 3657 ± 2 | 
 |  |  | 3570 ± 309 |  |  | 977 ± 11 | c1ccc2c(c1)ncc1c3ccccc3[nH]c21 [Compound 14, 11H-indolo[3,2-c]quinoline] | poor activity |  | 18.9 | 18460 ± 183 | % at 80 µM (printed in MDA-MB-231 IC50 column) ([5]; MDA-MB-231, 80 µM): 36% at 80 µM ^e; % at 80 µM (PC-3) ([7]; PC-3, 80 µM): 30% at 80 µM ^f
 |  |  |  |  |  |  | Fc1ccc2[nH]c3ccc4ncccc4c3c2c1 [Compound 9b, 10-Fluoro-7H-pyrido[2,3-c]carbazole] |  | 100 |  |  | melting point: 256 to 257 °C

Source: article PMC8198049, “Synthesis and Evaluation of the Tetracyclic Ring-System of Isocryptolepine and Regioisomers for Antimalarial, Antiproliferative and Antimicrobial Activities” (Molecules, 2021)
